The values that follow are results of earlier work, collected in US20150065426A1, “Testosterone Booster Transdermal Compositions” (Professional Compounding Centers Of America, priority 2013, published 2015).

A value given as a limit tells only on which side of the number the result lay.

For data set [1] the following is noted: men with elevated estradiol / hormone disorders.
For data set [2] the following is noted: after the use of anastrozole for about 7 days.

With `CC(C)(C#N)c1cc(Cn2cncn2)cc(C(C)(C)C#N)c1` [anastrozole, Anastrozole], in data set [1], the estradiol levels entry was “significant decrease”. Moreover, the “increase of natural testosterone levels” value in data set [2] is on record as no more than 60%.
